According to ChEMBL document CHEMBL3431459, “Roche carnitine palmitoyltransferase modulator screening data (supplementary data associated with the publication CHEMBL2216752)”:
Values after ≈ are worked out from the molar mass of the structure shown.

Experiments:
[1] = target: T1, Carnitine O-palmitoyltransferase 1, muscle isoform (Homo sapiens, UniProt Q92523); experiment: SUPPLEMENTARY: Inhibition of Carnitine palmitoyltransferase 1, muscle isoform; set-up: species or system Muscle tissue
T1 sequence (Q92523 whole entry): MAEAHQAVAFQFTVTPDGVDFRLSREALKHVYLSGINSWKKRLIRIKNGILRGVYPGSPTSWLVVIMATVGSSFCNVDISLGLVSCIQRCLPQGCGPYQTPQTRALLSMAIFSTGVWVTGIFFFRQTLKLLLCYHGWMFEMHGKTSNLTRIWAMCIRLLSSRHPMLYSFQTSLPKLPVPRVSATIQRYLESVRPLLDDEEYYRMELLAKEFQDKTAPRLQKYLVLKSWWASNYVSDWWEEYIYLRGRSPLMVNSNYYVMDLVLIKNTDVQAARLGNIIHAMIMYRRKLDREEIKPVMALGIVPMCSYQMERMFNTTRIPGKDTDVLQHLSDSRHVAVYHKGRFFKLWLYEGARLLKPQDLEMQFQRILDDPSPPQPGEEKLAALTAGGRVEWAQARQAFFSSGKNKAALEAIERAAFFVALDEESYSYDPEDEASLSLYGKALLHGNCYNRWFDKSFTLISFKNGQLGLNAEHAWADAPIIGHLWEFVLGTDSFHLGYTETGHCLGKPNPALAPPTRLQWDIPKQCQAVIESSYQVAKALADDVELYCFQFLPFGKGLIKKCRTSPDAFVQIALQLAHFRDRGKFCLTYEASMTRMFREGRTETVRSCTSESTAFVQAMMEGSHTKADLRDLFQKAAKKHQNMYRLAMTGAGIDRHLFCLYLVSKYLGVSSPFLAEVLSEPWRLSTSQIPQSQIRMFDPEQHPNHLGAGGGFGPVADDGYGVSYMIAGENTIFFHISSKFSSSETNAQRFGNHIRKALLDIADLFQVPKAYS

[2] = SUPPLEMENTARY: PAMPA permeability assay; assay type: physicochemical; settings: read-out: Permeability
[3] = target: T2, Carnitine O-palmitoyltransferase 1, liver isoform (Rattus norvegicus, UniProt P32198); experiment: SUPPLEMENTARY: Inhibition of Carnitine palmitoyltransferase 1, liver isoform
T2 sequence (P32198 whole entry): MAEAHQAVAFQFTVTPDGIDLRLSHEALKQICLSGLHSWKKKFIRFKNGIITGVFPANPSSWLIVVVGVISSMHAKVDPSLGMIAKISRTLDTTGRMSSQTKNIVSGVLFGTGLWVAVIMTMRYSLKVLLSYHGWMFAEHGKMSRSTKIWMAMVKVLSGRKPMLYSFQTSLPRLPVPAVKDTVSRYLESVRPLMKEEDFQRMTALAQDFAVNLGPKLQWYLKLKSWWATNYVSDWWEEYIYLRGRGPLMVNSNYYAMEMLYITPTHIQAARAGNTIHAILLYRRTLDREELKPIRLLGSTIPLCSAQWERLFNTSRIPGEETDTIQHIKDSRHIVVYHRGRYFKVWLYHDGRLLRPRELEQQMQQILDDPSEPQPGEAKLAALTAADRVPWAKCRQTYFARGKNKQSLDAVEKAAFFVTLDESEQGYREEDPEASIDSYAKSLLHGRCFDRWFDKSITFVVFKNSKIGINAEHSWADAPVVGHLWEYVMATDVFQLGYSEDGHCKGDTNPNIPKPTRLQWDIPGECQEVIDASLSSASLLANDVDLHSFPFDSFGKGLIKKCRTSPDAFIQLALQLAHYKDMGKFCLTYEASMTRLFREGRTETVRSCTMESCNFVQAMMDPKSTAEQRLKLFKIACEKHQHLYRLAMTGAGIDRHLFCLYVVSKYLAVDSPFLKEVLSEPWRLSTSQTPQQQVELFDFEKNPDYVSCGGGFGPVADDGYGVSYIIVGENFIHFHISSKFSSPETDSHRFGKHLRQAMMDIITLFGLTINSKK

[4] = SUPPLEMENTARY: Lyophilisation Solubility Assay (LYSA); assay type: physicochemical; settings: read-out: Kinetic_solubility
[5] = SUPPLEMENTARY: Lipophilicity (log D) Determination by high-throughput shake-flask; assay type: physicochemical; settings: octanol/water
[6] = target: T3, Carnitine O-palmitoyltransferase 2, mitochondrial (Rattus norvegicus, UniProt P18886); experiment: (§1) SUPPLEMENTARY: Inhibition of Carnitine palmitoyltransferase 2
T3 sequence (P18886 whole entry): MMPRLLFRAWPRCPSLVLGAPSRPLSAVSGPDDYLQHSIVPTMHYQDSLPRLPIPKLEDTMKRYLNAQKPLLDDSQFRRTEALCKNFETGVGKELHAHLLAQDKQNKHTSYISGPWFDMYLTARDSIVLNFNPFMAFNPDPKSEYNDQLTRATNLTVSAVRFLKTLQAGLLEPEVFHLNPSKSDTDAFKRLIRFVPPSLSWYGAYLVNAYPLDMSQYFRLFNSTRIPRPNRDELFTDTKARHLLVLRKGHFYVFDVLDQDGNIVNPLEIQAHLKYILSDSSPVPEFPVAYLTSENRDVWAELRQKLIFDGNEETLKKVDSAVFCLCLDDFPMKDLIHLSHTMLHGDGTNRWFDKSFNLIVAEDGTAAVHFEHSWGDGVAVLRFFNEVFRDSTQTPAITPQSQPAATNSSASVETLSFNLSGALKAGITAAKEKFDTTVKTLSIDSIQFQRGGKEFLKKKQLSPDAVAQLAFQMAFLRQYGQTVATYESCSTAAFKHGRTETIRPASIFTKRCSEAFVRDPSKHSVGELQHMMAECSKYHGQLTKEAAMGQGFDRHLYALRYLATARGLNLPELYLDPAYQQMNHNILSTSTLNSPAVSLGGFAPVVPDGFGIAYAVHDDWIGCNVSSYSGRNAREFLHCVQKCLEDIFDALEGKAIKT

[7] = target: T4, Carnitine O-palmitoyltransferase 2, mitochondrial (Homo sapiens, UniProt P23786); experiment: as §1
T4 sequence (P23786 whole entry): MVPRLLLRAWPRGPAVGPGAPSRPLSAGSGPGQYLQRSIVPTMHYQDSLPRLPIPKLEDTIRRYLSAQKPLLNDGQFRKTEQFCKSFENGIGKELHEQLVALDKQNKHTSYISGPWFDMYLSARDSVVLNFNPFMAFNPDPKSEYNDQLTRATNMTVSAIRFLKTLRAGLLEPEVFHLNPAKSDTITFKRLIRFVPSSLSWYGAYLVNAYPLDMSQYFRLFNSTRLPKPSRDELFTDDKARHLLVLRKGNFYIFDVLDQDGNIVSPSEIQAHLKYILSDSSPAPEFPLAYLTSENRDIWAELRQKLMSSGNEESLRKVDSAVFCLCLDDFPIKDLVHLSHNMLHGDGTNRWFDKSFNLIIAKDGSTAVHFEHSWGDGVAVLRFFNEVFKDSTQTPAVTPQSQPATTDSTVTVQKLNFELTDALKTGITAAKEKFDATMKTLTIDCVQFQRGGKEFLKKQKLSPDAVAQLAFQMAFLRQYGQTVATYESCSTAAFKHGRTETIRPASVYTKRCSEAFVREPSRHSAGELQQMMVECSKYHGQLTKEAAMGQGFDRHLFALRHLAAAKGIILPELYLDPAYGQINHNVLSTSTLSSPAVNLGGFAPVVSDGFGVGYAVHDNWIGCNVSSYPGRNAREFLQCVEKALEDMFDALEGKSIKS

Structure (SMILES)	IC50 [1] [µM]	Papp [2] [×10⁻⁶ cm/s]	IC50 [3] [µM]	solubility kinetic [4] [µg/mL]	logD [5]	IC50 [6] [µM]	IC50 [7] [µM]
N#Cc1ccc(-c2csc([C@H]3CCCCN3C(=O)COc3ccccc3)n2)cc1	> 100	1.95	0.245	< 1	> 3	> 100	41.6
O=C(COc1ccccc1)N1CCCC[C@@H]1c1csc(-c2ccccn2)n1	> 100	4.83	0.108	18 (≈ 47.4 µM)	> 3	> 100	> 100
COc1ccc(Cl)cc1S(=O)(=O)N1CCc2c(C)cc(C(=O)Nc3ccc(CC(=O)O)cc3)cc21	0.447	3.07	0.238	37 (≈ 71.8 µM)	0.62	> 100	98.4
CC(=O)Nc1ccc(-c2nc([C@H]3CCCCN3C(=O)COc3ccccc3)cs2)cc1	> 100	1.23	0.179	1 (≈ 2.3 µM)	3.72	> 100	> 100
O=C(COc1ccccc1)N1CCCC[C@@H]1c1nc(-c2ccc(Cl)nc2)cs1	> 100	1.25	0.305	1 (≈ 2.42 µM)	> 3	> 100	62.1
Cc1ccc(-c2nc([C@H]3CCCCN3C(=O)COc3ccccc3)cs2)cn1	36	2.07	0.0605	37 (≈ 94 µM)	> 3	88.3	24.3
O=C(O)c1cccc(-c2csc([C@H]3CCCCN3C(=O)COc3ccccc3)n2)c1	> 100	5.06	0.159	344 (≈ 814 µM)	1.06	78.6	31.8
CS(=O)(=O)c1ccc(-c2csc([C@H]3CCCCN3C(=O)COc3ccccc3)n2)cc1	6.12	2.11	0.327	1 (≈ 2.19 µM)	> 3	> 100	1.86
O=C(O)c1cccc(-c2nc([C@H]3CCCCN3C(=O)COc3ccccc3)cs2)c1	95.9	2.35	0.529	> 511	0.92	> 100	23
O=C(O)Cc1ccc(NC(=O)c2ccc3c(c2)N(S(=O)(=O)c2cccc(Cl)c2)CC3)cc1	4.5	3.65	0.0798	20 (≈ 42.5 µM)	0.48	> 100	> 100
COc1ccc(-c2nc([C@H]3CCCCN3C(=O)COc3ccccc3)cs2)cn1	> 100	0.3	0.108	2 (≈ 4.88 µM)	> 3	> 100	58.9
O=C(O)c1ccc(-c2csc([C@H]3CCCCN3C(=O)COc3ccccc3)n2)cc1	29	5.18	0.496	> 563	1.09	42.1	10.6
O=C(COc1ccccc1)N1CCCC[C@@H]1c1nc(-c2ccccc2)cs1	> 100	1.48	0.306	< 1	3.8	> 100	> 100
COc1ccc(Cl)cc1S(=O)(=O)N1CCc2ccc(C(=O)Nc3ccc(C(=O)O)c(F)c3)cc21	0.989	1.67	0.0663	26 (≈ 51.5 µM)	0.38	4.86	1.37
O=C(COc1ccccc1)N1CCCC[C@@H]1c1nc(-c2cccnc2)cs1	71.5	3.8	0.214	37 (≈ 97.5 µM)	3.15	32.8	16.7
O=C(COc1ccccc1)N1CCCC[C@@H]1c1nc(-c2ccncc2)cs1	> 100	3.84	0.265	39 (≈ 103 µM)	2.95	31.6	8.32
